Measured values reported in US6872727B1, “Polycyclic pyrimidine -2,4(1H,3H)-diones with functionalized alkyl residues at the 1- and/or 3-position(s); methods for their synthesis and pharmaceutical preparation” (Privates Institut fur Biomedizinische Forschung und Beratung, priority 1999, dated 2005).

molecular target: T1, human matrix metalloproteinase-9 (MMP-9; gelatinase B) (Homo sapiens, UniProt P14780); test: Inhibition of human matrix metalloproteinase-9 (gelatinase B); assay type: biochemical; details: trypsin-activated native MMP-9 from human buffy coat
T1 construct: from tissue; host or cells: human buffy coat (blood leukocytes)
T1 sequence (P14780 107-707 limits assumed): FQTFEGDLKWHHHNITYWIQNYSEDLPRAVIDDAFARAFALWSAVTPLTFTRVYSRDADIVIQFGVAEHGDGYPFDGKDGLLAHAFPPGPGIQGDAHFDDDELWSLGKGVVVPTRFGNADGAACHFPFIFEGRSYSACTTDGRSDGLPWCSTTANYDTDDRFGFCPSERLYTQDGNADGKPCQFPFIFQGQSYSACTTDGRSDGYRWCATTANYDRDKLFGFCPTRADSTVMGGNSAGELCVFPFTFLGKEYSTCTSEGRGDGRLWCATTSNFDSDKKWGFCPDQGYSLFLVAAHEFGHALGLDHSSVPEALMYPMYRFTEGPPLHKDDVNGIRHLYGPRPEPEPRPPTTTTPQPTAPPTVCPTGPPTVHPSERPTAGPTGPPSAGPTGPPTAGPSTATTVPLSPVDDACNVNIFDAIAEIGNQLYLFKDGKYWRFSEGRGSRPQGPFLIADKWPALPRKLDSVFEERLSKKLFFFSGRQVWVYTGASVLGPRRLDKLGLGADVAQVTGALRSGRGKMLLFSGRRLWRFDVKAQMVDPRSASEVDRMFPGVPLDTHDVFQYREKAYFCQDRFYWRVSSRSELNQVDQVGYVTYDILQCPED
Method: Native MMP-9 was reproducibly obtained with reasonable yield and purity from human buffy coat. Buffy coat, to which was added an appropriate volume of 10% (v/v) Triton-X-100 to obtain a final concentration of 0,4% detergent, was shaken on ice for 30 min; then, one volume of twofold-concentrated binding buffer (40 mM Tris-HCl pH 7,5, 10 mM CaCl2, 1 M NaCl, 0,2% (v/v) Triton X-100 was added and the mixture shaken on ice for a further 30 min.
The mixture was then centrifuged for 15 min at 16,000 rpm (30,590×g) in a Kendro SS-34 rotor at 4° C. and the resulting supernatant filtered over glass wool. The filtrate was incubated batchwise with gelatin-agarose equilibrated in binding buffer for 1 h on ice with continuous shaking The MMP-9-bound gelatin-agarose was then loaded into a chromatographic tube and the column washed with at least ten bed volumes of binding buffer, or until no protein was detected by absorbance at 280 nm in the wash buffer. MMP-9 was eluted from the gelatin affinity column by application of two bed volumes of binding buffer containing 5% (v/v) dimethylsulfoxide (DMSO).
The eluate was applied to a gel filtration column of Sephadex G-75 both to exchange buffer and to eliminate small amounts of contaminating MMP-2. The G-75 column was prepared and eluted with Buffer I [20 mM Tris-HCl pH 7,5, 5 mM CaCl2, 100 mM NaCl, 0,1% (v/v) Triton X-100].
The eluted MMP-9 includes the three characterized forms of the enzyme: monomer, homodimer, and heterodimer (complex with lipokalin). The purity of MMP-9 was estimated to be ca. 90%, with the remaining contaminating protein being fibronectin and small amounts of TIMPS.
The latent MMP-9 was activated by a 30-60 min incubation at 37° C. with 1/100 vol trypsin (10 mg ml^−1). The trypsin was subsequently inactivated by addition of the serine proteinase inhibitor phenlymethylsulfonylfluoride (PMSF) or the more specific trypsin inhibitor TLCK.
The enzymatic cleavage of commercially available synthetic internally quenched fluorigenic peptide substrates such as 7-methylcoumarin-4-yl-acetyl-prolyleucyl-glycyl-leucyl-(dinitrophenyl-L-α,β-diaminopropionyl)-alanyl-arginylamide (Mca-Pro-Leu-Gly-Leu-Dap(Dnp)-Ala-Arg-NH2) at the scissile -Gly-Leu-peptide bond separates the fluorescent Mca group from the dinitrophenol quencher, resulting in a strong linear increase in fluorescence intensity that can be readily measured in a fluorimeter (λexitation328 nm, λemission 393 nm) over the first few minutes of the reaction. The specificity of the assay for matrix metalloproteinases is provided by the type I collagen-derived sequence -Pro-Leu-Gly-Leu- in the synthetic substrate, as well as by the incubation conditions. To test the efficacy of the synthetic collagenase/MMP inhibitors, the residual enzymatic activity remaining after an incubation of enzyme plus different amounts of inhibitor is measured at a fixed enzyme and substrate concentration. For each inhibitor, three test series at different fixed substrate concentrations were carried out. From the time-dependent increase in fluorescence intensity measured, the velocity (v) of the enzymatic activity can be calculated as increase in arbitrary fluorescence intensity units per minute. The inhibition constant Ki is calculated graphically by the method of Dixon (1953) by plotting the reciprocal of the reaction velocity 1/v on the ordinate, and the inhibitor concentration on the abscissa. The x-intercept of the linear plot is defined as minus K1 value.
1984 μl assay buffer (100 mM Tris-HCl pH 7,5, 100 mM NaCl, 10 mM CaCl2, 0,05% Brij 35) • 2 μl inhibitor dissolved in DMSO, or DMSO alone as a solvent control • 4 μl enzyme (MMP-2, MMP-9, or the catalytic domain of MMP-8) • 10 μl Mca-Pro-Leu-Gly-Leu-Dap(Dnp)-Ala-Arg-NH2 in DMSO Method • 1. Incubate buffer, enzyme, and inhibitor for 5 min at room temperature, with stirring. • 2. Start the reaction by adding 10 μl substrate in DMSO • 3. Record the increase in fluorescence intensity over 2 min. […]

**Q.** How did the “MMP-9 (50% inhibition)” value turn out when `CC(S)CCn1c(=O)[nH]c(=O)c2ccccc21` (racemic) [Example 3, (R,S)-1-(3-mercaptobut-1-yl)-chinazolin-2,4(1H,3H)-dione] was run?
**A.** The value was “negative”.

same assay, conditions: trypsin-activated native MMP-9 from human buffy coat; read-out: MMP-9 (50% inhibition)

**Q.** How did the IC50 turn out when `CC(CCS)n1c(=O)[nH]c2ccccc2c1=O` (racemic) [Example 18, (R,S)-3-[3-(1-methyl)-mercaptopropyl]-chinazolin-2,4(1H,3H)-dione] was run?
**A.** Its IC50 is 10 µM.

**Q.** `O=c1[nH]c(=O)n(CCCS)c2ccccc12` [Example 4, 1-(3-mercaptopropyl)-chinazolin-2,4(1H,3H)-dione] was tested. Which IC50 did it give?
**A.** The IC50 was 6 µM.

**Q.** `O=c1[nH]c(=O)n(CCS)c2ccccc12` [Example 5, 1-(2-mercaptoethyl)-chinazolin-2,4(1H,3H)-dione] was tested. Which IC50 did it give?
**A.** Its IC50 is 12.5 µM.

**Q.** Which IC50 does the source give for `Cn1c(=O)c2ccccc2n(CCCS)c1=O` [Example 7, 1-(3-mercaptoprop-1-yl)-3-methyl-chinazolin-2,4(1H,3H)-dione] here?
**A.** The IC50 was 71.4 µM.

**Q.** `O=c1[nH]c2ccccc2c(=O)n1CCCCS` [Example 12, 3-(4-mercaptobut-1-yl)-chinazolin-2,4(1H,3H)-dione] was tested. Which IC50 did it give?
**A.** The IC50 was 20 µM.

**Q.** With `Cn1c(=O)c2sccc2n(CCCS)c1=O` [Example 14, 1-(3-mercaptoprop-1-yl)-3-methyl-thieno(3,2-d)-pyrimidin-2,4(1H,3H)-dione] as the compound, how does the IC50 read?
**A.** The IC50 was 50 µM.

**Q.** For `Cn1c(=O)c2sccc2n(CCS)c1=O` [Example 17, 1-(2-mercaptoethyl)-3-methyl-thieno[3,2-d]-pyrimidine-2,4(1H,3H)-dione], which IC50 is on record?
**A.** The IC50 was 10 µM.
